From patent US20240148821A1, “PHARMACEUTICAL USE OF CYCLIC PEPTIDE COMPOUND” (CHUGAI SEIYAKU KABUSHIKI KAISHA, priority 2021, published 2024)
Numbered stars: 1 amine (or outer) side, 2 acyl side, 3 side chain; on linkers, the order of the positions; unused ones are H or OH. Bridge positions count the residues as written; N and C are the ends. Square brackets hold non-standard residues; d marks the D form. Peptide text beside a SMILES is read from it. * marks the point of attachment. hPhe(3-Cl-4-CF3) = N[C@@H](CCc1ccc(C(F)(F)F)c(Cl)c1)C(=O)O; NMePhe(4-CF3) = CN[C@@H](Cc1ccc(C(F)(F)F)cc1)C(=O)O; hPhe(4-CF3) = N[C@@H](CCc1ccc(C(F)(F)F)cc1)C(=O)O; NMePhe(4-Cl) = CN[C@@H](Cc1ccc(Cl)cc1)C(=O)O; NMePhe(4-Me) = CN[C@@H](Cc1ccc(C)cc1)C(=O)O; hPhe(4-Cl) = N[C@@H](CCc1ccc(Cl)cc1)C(=O)O; NMedβ3hAla = C[C@H](CC(=O)[*:2])N(C)[*:1]; NMeNva(5,5-F2) = CN[C@@H](CCC(F)F)C(=O)O; NMeGly(cPent) = CN[C@H](C(=O)O)C1CCCC1; Pro(4,4-F2) = O=C(O)[C@@H]1CC(F)(F)CN1; dβ3hPip = O=C(C[C@H]1CCCCN1[*:1])[*:2]; NMeCha = CN[C@@H](CC1CCCCC1)C(=O)O; Hyp = O=C(O)[C@@H]1C[C@@H](O)CN1; NEtLeu = CCN[C@@H](CC(C)C)C(=O)O; NMeChg = CN[C@H](C(=O)O)C1CCCCC1; NMeF = CN[C@@H](Cc1ccccc1)C(=O)O; NMeD = CN[C@@H](CC(=O)O)C(=O)O; NMeL = CN[C@@H](CC(C)C)C(=O)O; NMeV = CN[C@H](C(=O)O)C(C)C; d(β3hA) = C[C@@H](N)CC(=O)O; NMeA = CN[C@@H](C)C(=O)O; Piperidide = C1CCN(*)CC1; Ac5c = NC1(C(=O)O)CCCC1; Aze = O=C(O)[C@@H]1CCN1; Ac4c = NC1(C(=O)O)CCC1; Sar = CNCC(=O)O

molecular target: protein-protein interaction between Kras and SOS1 (biotin-tagged human Kras loaded with GDP, His-tagged human SOS1) (Homo sapiens (Human), UniProt P01116, G12D); experiment: Protein-protein interaction inhibition between Kras and SOS1 (KrasG12D-SOS PPI) using AlphaScreen; type: biochemical; settings: AlphaScreen; biotin-tagged human Kras loaded with GDP, His-tagged human SOS1; read-out: KRAS G12D-SOS PPI IC50;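 note: kras produced in E. coli, Ni-coupled donor beads and streptavidin acceptor beads, excitation 680 nm with emission detected at 520–620 nm via singlet oxygen transfer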

SMILES	IC50 [nM]
CO[C@H](C)[C@@H]1NC(=O)[C@H](CC(C)C)N(C)C(=O)C[C@@H](C(=O)N2CCCCC2)N(C)C(=O)[C@H](C(C)C)N(C)C(=O)C2(CCCC2)NC(=O)[C@@H]2CCCN2C(=O)[C@H](CCc2ccc(C(F)(F)F)c(Cl)c2)NC(=O)CN(C)C(=O)[C@H](CC2CCCCC2)N(C)C(=O)[C@@H]2CCN2C(=O)[C@H](C)N(C)C1=O [Compound 497] ([NMeL]T(Me)[NMeA][Aze][NMeCha][Sar][hPhe(3-Cl-4-CF3)]P[Ac5c][NMeV][NMeD]-Piperidide; lactam N-11)	4.3
CC[C@H](C)[C@@H]1NC(=O)[C@H](CC(C)C)N(C)C(=O)C[C@@H](C)N(C)C(=O)[C@H](C2CCCCC2)N(C)C(=O)C2(CCC2)NC(=O)[C@@H]2CC(F)(F)CN2C(=O)[C@H](CCc2ccc(C(F)(F)F)c(Cl)c2)NC(=O)CN(C)C(=O)[C@H](Cc2ccc(C(F)(F)F)cc2)N(C)C(=O)[C@@H]2CCN2C(=O)[C@H](C)N(C)C1=O [Compound 505] (cyclo([Ac4c][NMeChg][NMedβ3hAla][NMeL]I[NMeA][Aze][NMePhe(4-CF3)][Sar][hPhe(3-Cl-4-CF3)][Pro(4,4-F2)]))	86
CCO[C@@H]1C[C@H]2C(=O)NC3(CCCC3)C(=O)N(C)[C@@H](C3CCCC3)C(=O)N(C)[C@H](C)CC(=O)N(C)[C@@H](CC(C)C)C(=O)N[C@@H]([C@@H](C)CC)C(=O)N(C)CC(=O)N(C)CC(=O)N(C)[C@@H](CC3CCCCC3)C(=O)N(C)CC(=O)N[C@@H](CCc3ccc(C(F)(F)F)c(Cl)c3)C(=O)N2C1 [Compound 510] (cyclo([Ac5c][NMeGly(cPent)][NMedβ3hAla][NMeL]I[Sar][Sar][NMeCha][Sar][hPhe(3-Cl-4-CF3)][Hyp](Et)))	4
CC[C@H](C)[C@@H]1NC(=O)[C@H](C)N(C)C(=O)C[C@H]2CCCCN2C(=O)[C@H](C(C)C)N(C)C(=O)[C@H](Cc2ccccc2)N(C)C(=O)[C@H](CC(C)C)N(C)C(=O)[C@H](CCc2ccc(C(F)(F)F)cc2)NC(=O)CN(C)C(=O)[C@H](Cc2ccc(Cl)cc2)N(C)C(=O)CN(C)C(=O)CN(C)C1=O [Compound 512] (cyclo(I[Sar][Sar][NMePhe(4-Cl)][Sar][hPhe(4-CF3)][NMeL][NMeF][NMeV][dβ3hPip][NMeA]))	150
CC[C@H](C)[C@@H]1NC(=O)[C@H](CC(C)C)N(C)C(=O)C[C@@H](C(=O)N2CCCCC2)N(C)C(=O)[C@H](C2CCCCC2)N(C)C(=O)C2(CCCC2)NC(=O)[C@H](CCC(F)F)N(C)C(=O)[C@H](CCc2ccc(C(F)(F)F)c(Cl)c2)NC(=O)CN(C)C(=O)[C@H](CC2CCCCC2)N(C)C(=O)CN(C)C(=O)CN(C)C1=O [Compound 523] ([NMeL]I[Sar][Sar][NMeCha][Sar][hPhe(3-Cl-4-CF3)][NMeNva(5,5-F2)][Ac5c][NMeChg][NMeD]-Piperidide; lactam N-11)	5.8
CC[C@H](C)[C@@H]1NC(=O)[C@H](CC(C)C)N(C)C(=O)C[C@@H](C(=O)N2CCCCC2)N(C)C(=O)[C@H](C(C)C)N(C)C(=O)C2(CCCC2)NC(=O)[C@@H]2CCCN2C(=O)[C@H](CCc2ccc(Cl)cc2)NC(=O)CN(C)C(=O)[C@H](CC2CCCCC2)N(C)C(=O)CN(C)C(=O)[C@@H]2CCCN2C1=O [Compound 530] ([NMeL]IP[Sar][NMeCha][Sar][hPhe(4-Cl)]P[Ac5c][NMeV][NMeD]-Piperidide; lactam N-11)	140
CC[C@H](C)[C@@H]1NC(=O)[C@H](CC(C)C)N(CC)C(=O)C[C@@H](C)NC(=O)[C@H](C2CCCC2)N(C)C(=O)C2(CCCC2)NC(=O)[C@@H]2CCCN2C(=O)[C@H](CCc2ccc(C(F)(F)F)c(Cl)c2)NC(=O)CN(C)C(=O)[C@H](Cc2ccc(C)cc2)N(C)C(=O)[C@@H]2CCN2C(=O)[C@H](C)N(C)C1=O [Compound 531] (cyclo([Ac5c][NMeGly(cPent)][d(β3hA)][NEtLeu]I[NMeA][Aze][NMePhe(4-Me)][Sar][hPhe(3-Cl-4-CF3)]P))	1.6
CCO[C@@H]1C[C@H]2C(=O)NC3(CCCC3)C(=O)N(C)[C@@H](C3CCCC3)C(=O)N(C)[C@H](C)CC(=O)N(C)[C@@H](CC(C)C)C(=O)N[C@@H]([C@@H](C)CC)C(=O)N(C)CC(=O)N(C)CC(=O)N(C)[C@@H](Cc3ccc(C(F)(F)F)cc3)C(=O)N(C)CC(=O)N[C@@H](CCc3ccc(C(F)(F)F)c(Cl)c3)C(=O)N2C1 [Compound 541] (cyclo([Ac5c][NMeGly(cPent)][NMedβ3hAla][NMeL]I[Sar][Sar][NMePhe(4-CF3)][Sar][hPhe(3-Cl-4-CF3)][Hyp](Et)))	4.3
CC[C@H](C)[C@@H]1NC(=O)[C@H](C)N(C)C(=O)C[C@@H](C)NC(=O)[C@H](CC(C)C)N(C)C(=O)[C@H](Cc2ccccc2)N(C)C(=O)[C@H](CC(C)C)N(C)C(=O)[C@H](CCc2ccc(C(F)(F)F)cc2)NC(=O)CN(C)C(=O)[C@H](Cc2ccc(Cl)cc2)N(C)C(=O)CN(C)C(=O)CN(C)C1=O [Compound 546] (cyclo(I[Sar][Sar][NMePhe(4-Cl)][Sar][hPhe(4-CF3)][NMeL][NMeF][NMeL][d(β3hA)][NMeA]))	130
